Assay results taken from BindingDB's records for doi:10.1016/j.chembiol.2007.09.006 (University of Virginia At Charlottesville, 2007).
pIC50: −log10 of the molar value.

Target: T1, Core-binding factor subunit beta (Homo sapiens, UniProt Q13951)
T1 sequence (Q13951 whole entry): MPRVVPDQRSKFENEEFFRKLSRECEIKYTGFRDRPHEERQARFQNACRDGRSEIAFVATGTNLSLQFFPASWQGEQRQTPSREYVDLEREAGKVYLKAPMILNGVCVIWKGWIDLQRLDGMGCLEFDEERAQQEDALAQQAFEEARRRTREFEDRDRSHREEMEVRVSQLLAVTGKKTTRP
Assay: FRET Assay
Conditions: pH 7.5; 23 °C
Method: Protein concentrations were determined by UV absorption at 433 nm for Cerulean-Runt and 513 nm for Venus-CBFbeta. […] Mean values of IC50 originating from two independent measurements performed in duplicate together with the standard deviations are reported.

Structure (SMILES)	pIC50
CCCc1sc(N)nc1-c1ccc(OC)cc1 [thiazol-2-amine, 18]	4.63
COc1ccc(-c2csc(N)n2)cc1 [thiazol-2-amine, 6]	4.73
Nc1nc(-c2ccc(Cl)cc2Cl)cs1 [thiazol-2-amine, 16]	4.31
Nc1nc(-c2ccccc2Cl)cs1 [thiazol-2-amine, 14]	5.96
COc1cccc(-c2csc(N)n2)c1 [thiazol-2-amine, 11]	4.21
Nc1nc(-c2ccc3c(c2)OCO3)cs1 [thiazol-2-amine, 8]	5.05
COc1ccc(-c2csc(N)n2)cc1OC [thiazol-2-amine, 7]	4.39
Cc1cccc(-c2csc(N)n2)c1 [thiazol-2-amine, 10]	3.96
Nc1nc(-c2cccc(Cl)c2)cs1 [thiazol-2-amine, 9]	4.92
CCOc1ccc(-c2nc(N)sc2CC)cc1 [thiazol-2-amine, 21]	< 3.30
Nc1nc(-c2ccc(C(F)(F)F)cc2)cs1 [thiazol-2-amine, 5]	5.05
CCc1sc(N)nc1-c1ccc(OC)cc1 [thiazol-2-amine, 17]	5.49
Cc1ccccc1-c1csc(N)n1 [thiazol-2-amine, 13]	5.30
CCc1sc(N)nc1-c1cccc(C)c1 [thiazol-2-amine, 19]	4.18
CCc1sc(N)nc1-c1ccccc1OC [thiazol-2-amine, 20]	4.77
